# Test results reported in patent US7253146B2, “Template-fixed peptidomimetics with antimicrobial activity” (Polyphor Ltd, priority 2001, dated 2007).
# *1 amine or outer side, *2 acyl side, *3 side chain or, on linkers, in order; H or OH if unused. Where a SMILES comes first, the peptide text is derived from it. [ ]: non-standard residue; d: D form. X1 = CCCCCCC(=O)N[C@H]1C[C@@H](C(=O)[*:2])N([*:1])C1
# Assays:
# Candida albicans [1] = tested on: Candida albicans
# Description: (§1) Lyophilized peptides were weighed on a Microbalance (Mettler MT5) and dissolved in sterile water containing 0.01% acetic acid Tachyplesin was purchased from Bachem Ltd. (Bubendorf Switzerland).
# (§2) The antimicrobial activities of the peptides were determined by the standard NCCLS broth microdilution method (see ref 1, below) examined in sterile 96-wells plates (Nunclon polystyrene microtiter plates) in a total volume of 100 μl. […] 10^6 colony forming units (CFU)/ml for bacteria or 5×10^3 CFU/ml for Candida. Aliquots (50 μl) of the innocula were added to 50 μl of MH broth containing the peptide in serial twofold dilutions. The microorganisms used were Escherichia coli (ATCC 25922), Pseudomnonas aeruginosa (P. aeruginosa) (ATCC 27853), Stahylococcus aureus (ATCC 29213 and ATCC 25923) and Candida albicans. A selected number of peptides were screened for activity against a larger panel of gram-negative strains. These strains were; Escherichia coli ATCC 43827 and clinical isolates of Pseudomonas (P. aeruginosa V07 14482, P. aeruginosa 15288, P. aeruginosa V02 15328 and P. aeruginosa V09 16085) and Acinetobacter (Acinetobacter V04 19905/1, Acinetobacter V12 21143/1 and Acinetobacter V12 21193/1).
# [2] = tested on: Escherichia coli (ATCC 25922); conditions: ATCC 25922
# Description: as §1, §2
# [3] = tested on: Staphylococcus aureus ATCC 25923; conditions: ATCC 25923
# Description: as §1, §2
# [4] = tested on: Staphylococcus aureus ATCC 29213; conditions: ATCC 29213
# Description: as §1, §2
# Candida albicans [5] = tested on: Candida albicans; remark: listed apart in the source
# Description: as §2
# (§3) Salt sensitivity of the peptides was tested by the microtiter serial dilution assay as described above. Only MH broth was replaced by MH broth containing 1% NaCl.
# [6] = tested on: Escherichia coli ATCC 25922
# Description: as §2, §3
# [7] = tested on: Pseudomonas putida ATCC 27853
# Description: as §2, §3
# [8] = tested on: Staphylococcus aureus ATCC 25923
# Description: as §2, §3
# [9] = tested on: Staphylococcus aureus ATCC 29213
# Description: as §2, §3
smiles,measurement,setting,value
CCCCCCC(=O)N[C@H]1C[C@H]2C(=O)N[C@@H](CC(C)C)C(=O)N[C@@H](CCCNC(=N)N)C(=O)N[C@@H](CC(C)C)C(=O)N[C@@H](CCCCN)C(=O)N[C@@H](CCCCN)C(=O)N[C@@H](CCCNC(=N)N)C(=O)N[C@@H](CCCNC(=N)N)C(=O)N[C@@H](Cc3c[nH]c4ccccc34)C(=O)N[C@@H](CCCCN)C(=O)N[C@@H](Cc3ccc(O)cc3)C(=O)N[C@@H](CCCNC(=N)N)C(=O)N[C@@H](C(C)C)C(=O)N3CCC[C@@H]3C(=O)N2C1 [Example 256] (cyclo(KKRRWKYRV[dP][X1]LRL)),MIC Candida albicans,Candida albicans [1],6.2 µg/mL
same,MIC Escherichia coli ATCC 25922,[2],3.1 µg/mL
same,MIC Staphylococcus aureus ATCC 25923,[3],6.2 µg/mL
same,MIC Staphylococcus aureus ATCC 29213,[4],6.2 µg/mL
same,Minimal inhibitory concentration (MIC) Candida albicans,Candida albicans [5],25 µg/mL
same,Minimal inhibitory concentration (MIC) Escherichia coli ATCC 25922,[6],6.2 µg/mL
same,Minimal inhibitory concentration (MIC) Pseudomonas putida ATCC 27853,[7],6.2 µg/mL
same,Minimal inhibitory concentration (MIC) Staphylococcus aureus ATCC 25923,[8],25 µg/mL
same,Minimal inhibitory concentration (MIC) Staphylococcus aureus ATCC 29213,[9],25 µg/mL
